Values of other authors as cited in patent US20070197592A1, “Use of Paliperidone for the Treatment of Substance Abuse” (priority 2005, published 2007).

Assays:
[1] = tested on: animals; conditions: cited from earlier work; for water or food consumption: at the same time as the inhibition of alcohol consumption
[2] = tested on: golden hamster; conditions: cited from earlier work

Compound	water or food consumption [1]	alcohol consumption [1]	alcohol drinking [2]	water or food intake [2]
C=CCN1CC[C@]23c4c5ccc(O)c4O[C@H]2C(=O)CC[C@@]3(O)[C@H]1C5 [naloxone]	impaired water or food consumption	inhibit alcohol consumption		
O=C1CC[C@@]2(O)[C@H]3Cc4ccc(O)c5c4[C@@]2(CCN3CC2CC2)[C@H]1O5 [naltrexone]	impaired water or food consumption	inhibit alcohol consumption		
CN[C@H]1CC[C@@H](c2ccc(Cl)c(Cl)c2)c2ccccc21 [sertraline]	impaired water or food consumption	inhibit alcohol consumption		
O=c1c(-c2ccc(O)cc2)coc2cc(O[C@@H]3O[C@H](CO)[C@@H](O)[C@H](O)[C@H]3O)ccc12 [Daidzin]			decreases alcohol drinking	without producing a decrease in water or food intake
